pIC50: −log10 of the molar value. Calls of active or inactive are those of the source. No cut-off for these calls is given here.
Experiments:
[1] = target: Mitogen-activated protein kinase 14 (Homo sapiens, UniProt Q16539); test: Inhibition of recombinant human p38alpha expressed in Escherichia coli assessed as incoporation of [33]Pi after 60 mins in presence of [gamma-33P]-ATP by microplate scintillation counter method
TGF-beta receptor type-1 = target: T1, TGF-beta receptor type-1 (Homo sapiens, UniProt P36897); test: Inhibition of recombinant human GST-fused ALK5 expressed in baculovirus infected Sf9 cells assessed as incoporation of [33]Pi after 60 mins in presence of [gamma-33P]-ATP by microplate scintillation counter method
T1 sequence (P36897 whole entry): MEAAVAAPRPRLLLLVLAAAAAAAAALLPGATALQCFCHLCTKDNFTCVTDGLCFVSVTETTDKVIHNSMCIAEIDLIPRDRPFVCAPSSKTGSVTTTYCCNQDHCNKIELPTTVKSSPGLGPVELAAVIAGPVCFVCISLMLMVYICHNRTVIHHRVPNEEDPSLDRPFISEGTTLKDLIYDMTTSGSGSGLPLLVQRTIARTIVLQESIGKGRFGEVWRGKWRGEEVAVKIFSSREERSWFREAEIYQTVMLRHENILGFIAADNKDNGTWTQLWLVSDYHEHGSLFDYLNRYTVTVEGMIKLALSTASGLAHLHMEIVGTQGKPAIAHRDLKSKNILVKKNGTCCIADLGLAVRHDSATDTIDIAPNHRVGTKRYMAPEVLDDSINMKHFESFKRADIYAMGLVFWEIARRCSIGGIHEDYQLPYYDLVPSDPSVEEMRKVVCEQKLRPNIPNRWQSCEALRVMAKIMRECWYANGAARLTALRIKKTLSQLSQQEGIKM

[2] = target: T2, TGF-beta receptor type-1 (Homo sapiens) (UniProt P36897); test: Potency index, ratio of LY-2157299 IC50 to test compound IC50 for recombinant human GST-fused ALK5 expressed in baculovirus infected Sf9 cells assessed as incoporation of [33]Pi after 60 mins in presence of [gamma-33P]-ATP by microplate scintillation counter method
T2 sequence (whole entry): T1 sequence (P36897 whole entry)

U-87 MG [3] = test: Inhibition of epithelial-mesenchymal transition in human U-87MG cells assessed as reduction in TGF-beta stimulated Slug protein expression after 48 hrs by Western blot anlaysis; format: functional, cell-based; details: U-87MG ATCC, dose 0.5-1 µM
U-87MG ATCC [4] = test: Inhibition of TGF-beta-induced morphological changes in human U-87MG cells at 0.1 to 1 uM after 48 hrs; format: functional, cell-based; details: dose 0.1-1 µM
U-87MG ATCC [5] = test: Reversal of TGF-beta-induced epithelial-mesenchymal transition in human U-87MG cells assessed as reduction in N-cadherin protein level at 0.1 to 0.5 uM after 48 hrs by Western blotting analysis; format: functional, cell-based; details: dose 0.1-0.5 µM
U-87MG ATCC [6] = test: Reversal of TGF-beta-induced epithelial-mesenchymal transition in human U-87MG cells assessed as reduction in vimentin protein level at 0.1 to 0.5 uM after 48 hrs by Western blotting analysis; format: functional, cell-based; details: dose 0.1-0.5 µM
[7] = target: T2, TGF-beta receptor type-1 (Homo sapiens); test: Potency index, ratio of EW-7197 IC50 to test compound IC50 for recombinant human GST-fused ALK5 expressed in baculovirus infected Sf9 cells assessed as incoporation of [33]Pi after 60 mins in presence of [gamma-33P]-ATP by microplate scintillation counter method
U-87 MG [8] = test: Inhibition of epithelial-mesenchymal transition in human U-87MG cells assessed as reduction in TGF-beta stimulated nuclear translocation of slug at 1 uM pretreated with compound followed by TGFbeta stimulation and measured after 48 hrs by immunofluorescence assay; format: functional, cell-based; details: U-87MG ATCC
U-87MG ATCC [9] = test: Reversal of TGF-beta-induced epithelial-mesenchymal transition in human U-87MG cells assessed as downregulation of N-cadherin expression at 1 uM after 48 hrs by immunofluorescence assay; format: functional, cell-based
U-87MG ATCC [10] = test: Reversal of TGF-beta-induced epithelial-mesenchymal transition in human U-87MG cells assessed as reduction in N-cadherin mRNA level at 1 uM after 48 hrs by RT-PCR analysis; format: functional, cell-based
U-87MG ATCC [11] = test: Reversal of TGF-beta-induced epithelial-mesenchymal transition in human U-87MG cells assessed as reduction in vimentin mRNA level at 1 uM after 48 hrs by RT-PCR analysis; format: functional, cell-based
U-87 MG [12] = test: Inhibition of TGF-beta-induced cell migration in human U-87MG cells at 1 uM incubated for 36 hrs by bright field microscopy based wound healing assay; format: functional; details: U-87MG ATCC
U-87MG ATCC [13] = test: Inhibition of TGF-beta-induced cell invasion in human U-87MG cells at 1 uM incubated for 24 hrs by crystal violet staining based matrigel transwell assay; format: functional

Sequence of Mitogen-activated protein kinase 14 (Q16539 whole entry, the tested form may be a part): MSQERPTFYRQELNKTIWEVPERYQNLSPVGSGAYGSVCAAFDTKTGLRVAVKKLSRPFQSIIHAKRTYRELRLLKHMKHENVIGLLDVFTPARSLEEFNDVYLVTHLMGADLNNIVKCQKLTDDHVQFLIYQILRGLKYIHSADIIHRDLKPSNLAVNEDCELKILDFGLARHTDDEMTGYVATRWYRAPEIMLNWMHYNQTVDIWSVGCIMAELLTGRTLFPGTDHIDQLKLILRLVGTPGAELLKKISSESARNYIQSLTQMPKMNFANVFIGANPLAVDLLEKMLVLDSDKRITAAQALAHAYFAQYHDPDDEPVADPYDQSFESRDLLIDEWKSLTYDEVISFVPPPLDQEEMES

SMILES | pIC50 [1] | pIC50 (TGF-beta receptor type-1) | Ratio IC50 [2] | further results
Cc1cccc(-c2[nH]c(CNc3ccc(F)cc3)nc2-c2ccc3c(cnn3C)c2)n1 | 6.95 | 7.80 | 3.8 | 
Cc1cccc(-c2[nH]c(CNc3ccccc3F)nc2-c2ccc3c(cnn3C)c2)n1 | 7.02 | 7.89 |  | 
Cc1cccc(-c2[nH]c(CNc3cccc(F)c3)nc2-c2ccc3c(cnn3C)c2)n1 | 7.59 | 7.96 | 3.8 | 
Cc1cccc(-c2nn3c(c2-c2ccnc4ccc(C(N)=O)cc24)CCC3)n1 |  |  |  | inhibition (U-87 MG [3]): Dose-dependent effect; inhibition (U-87MG ATCC [4]): Active; Activity (U-87MG ATCC [5]): Active; Activity (U-87MG ATCC [6]): Active
Cc1ccc(NCc2nc(-c3ccc4[nH]ncc4c3)c(-c3cccc(C)n3)[nH]2)cc1 | 6.48 | 8.05 |  | 
Cc1cccc(-c2[nH]c(CNc3ccccc3)nc2-c2ccc3c(cnn3C)c2)n1 | 7.18 | 7.85 | 3.8 | 
Cc1cccc(-c2[nH]c(CNc3ccc(F)cc3)nc2-c2ccc3[nH]ncc3c2)n1 | 7.28 | 8.22 | 3.8 | 
Cc1ccc(NCc2nc(-c3ccc4c(cnn4C)c3)c(-c3cccc(C)n3)[nH]2)cc1 | 6.25 | 7.47 | 3.8 | 
Cc1cccc(-c2[nH]c(CNc3ccccc3C)nc2-c2ccc3c(cnn3C)c2)n1 | 7.15 | 7.62 | 3.8 | 
Cc1cccc(NCc2nc(-c3ccc4[nH]ncc4c3)c(-c3cccc(C)n3)[nH]2)c1 | 7.49 | 8.10 | 3.8 | 

Second part, led by results:

pIC50 [1] | pIC50 (TGF-beta receptor type-1) | Ratio IC50 [2] | SMILES | further results
7.70 | 8.30 |  | Cc1cccc(-c2[nH]c(CNc3ccccc3F)nc2-c2ccc3[nH]ncc3c2)n1 | 
7.64 | 8.30 |  | Cc1cccc(-c2[nH]c(CNc3ccccc3C)nc2-c2ccc3[nH]ncc3c2)n1 | 
7.89 | 8.40 | 32.3 | Cc1cccc(-c2[nH]c(CNc3ccccc3)nc2-c2ccc3[nH]ncc3c2)n1 | Ratio IC50 [7]: 3.5
7.64 | 8.00 |  | Cc1cccc(NCc2nc(-c3ccc4c(cnn4C)c3)c(-c3cccc(C)n3)[nH]2)c1 | 
8.40 | 8.40 |  | Cc1cccc(-c2[nH]c(CNc3cccc(F)c3)nc2-c2ccc3[nH]ncc3c2)n1 | inhibition (U-87 MG [3]): Dose-dependent effect; inhibition (U-87 MG [8]): Active; inhibition (U-87MG ATCC [4]): Active; Activity (U-87MG ATCC [9]): Active; Activity (U-87MG ATCC [5]): Active; Activity (U-87MG ATCC [6]): Active; Activity (U-87MG ATCC [10]): Active; Activity (U-87MG ATCC [11]): Active; inhibition (U-87 MG [12]): Active; inhibition (U-87MG ATCC [13]): Active

— ChEMBL document CHEMBL4732251, “Synthesis and evaluation of the epithelial-to- mesenchymal inhibitory activity of indazole-derived imidazoles as dual ALK5/p38α MAP inhibitors” (Eur J Med Chem, 2021)
